Experimental findings from DBAASP are described below.

SMILES strings stand for the structures. Values after ≈ are worked out from the molar mass of the structure shown. Bounds are passed on as bounds.

Test systems include Proteus vulgaris; Escherichia coli OP50; Staphylococcus aureus; Escherichia coli ML-35; Acinetobacter baumannii; Escherichia coli 170; Escherichia coli 4530.
Common to all, as to test: ≥ marks a high value that may be exact or a test limit, other limits are often not marked, values filed in µg/mL are converted to µM
In test [1] the test system is Bacillus subtilis IFO 3143.
In test [2] the test system is Escherichia coli IFO 12734.
Test [3] deals with Pseudomonas aeruginosa IFO 12582.
Test [4] concerns Staphylococcus aureus IFO 12732.
In test [5] the test system is Aspergillus flavus KCTC 7375.
Test [6] has as its system Bacillus megaterium KCTC 1096.
Test [7] has as its system Bacillus subtilis KCTC 1918.
The test system of test [8] is Candida albicans KCTC 7121.
For test [9], the system named is Escherichia coli KCTC 1682.
Test [10] has as its system Fusarium oxysporum KCTC 6084.
Test [11] relates to Pseudomonas aeruginosa KCTC 1637.
The subject of test [12] is Staphylococcus aureus KCTC 1621.
Test [13] relates to Trichosporon beigelii KCTC 7251.
The test system of test [14] is Bacillus subtilis IFO 3513.
Test [15] relates to Escherichia coli ATCC 25922.
Test [16] concerns Staphylococcus aureus ATCC 25929.
For test [17], the system named is Salmonella enterica subsp. enterica serovar Typhimurium ATCC 14028.
Test [18] relates to Serratia marcescens ATCC 8100.
Test [19] relates to Staphylococcus aureus ATCC 25923.
The test system of test [20] is Enterobacter cloacae 2524.
Test [21] concerns Enterobacter cloacae 6780.
In test [22] the test system is Klebsiella pneumoniae 1625.
Test [23] deals with Klebsiella pneumoniae 913.
Test [24] relates to Pseudomonas aeruginosa 4677.

Broadly, the MIC is the smallest concentration in the dilution series that meets the test's criterion for growth inhibition. Take `CC(C)C[C@H](NC(=O)[C@H](Cc1ccc(O)cc1)NC(=O)[C@H](Cc1cnc[nH]1)NC(=O)[C@@H](NC(=O)[C@H](CC(C)C)NC(=O)[C@H](C)NC(=O)[C@H](C)NC(=O)[C@H](CCCCN)NC(=O)CNC(=O)[C@@H](NC(=O)[C@H](Cc1cnc[nH]1)NC(=O)[C@H](CCCCN)NC(=O)CNC(=O)[C@@H](NC(=O)[C@H](Cc1cnc[nH]1)NC(=O)[C@H](C)NC(=O)[C@H](C)NC(=O)[C@H](CCCCN)NC(=O)[C@H](CCCCN)NC(=O)[C@H](Cc1ccccc1)NC(=O)[C@H](Cc1ccccc1)NC(=O)[C@H](CO)NC(=O)[C@H](C)NC(=O)[C@H](Cc1c[nH]c2ccccc12)NC(=O)[C@H](C)N)C(C)C)C(C)C)[C@@H](C)O)C(=O)O` [AWASFFKKAAHVGKHVGKAALTHYL]: the minimum inhibitory concentration (MIC) in [1] was 2.92 µM (≈ 8 µg/mL); in test [2], 5.84 µM (≈ 16 µg/mL); in [3], 23.4 µM (≈ 64 µg/mL); in test [4], 2.92 µM (≈ 8 µg/mL).
As for `CC[C@H](C)[C@H](NC(=O)[C@H](CCCCN)NC(=O)[C@H](CCCCN)NC(=O)[C@H](Cc1ccccc1)NC(=O)[C@H](CC(C)C)NC(=O)[C@H](CCCCN)NC(=O)[C@H](Cc1c[nH]c2ccccc12)NC(=O)[C@@H](N)CCCCN)C(=O)N[C@@H](CC(C)C)C(=O)N[C@@H](CCCCN)C(=O)N[C@@H](Cc1ccccc1)C(=O)N[C@@H](CC(C)C)C(=O)N[C@@H](Cc1cnc[nH]1)C(=O)N[C@@H](CC(C)C)C(=O)N[C@@H](C)C(=O)N[C@@H](CCCCN)C(=O)N[C@@H](CCCCN)C(=O)N[C@@H](Cc1ccccc1)C(N)=O` [KWKLFKKILKFLHLAKKF], the MIC in test [5] is 25 µM (≈ 57.9 µg/mL); in test [6] it was 1.56 µM (≈ 3.61 µg/mL); in [7], 1.56 µM (≈ 3.61 µg/mL); in test [8], 25 µM (≈ 57.9 µg/mL); in [9], 12.5 µM (≈ 29 µg/mL); in test [10], no less than 50 µM. The minimum inhibitory concentration (MIC) against Proteus vulgaris worked out at 6.25 µM (≈ 14.5 µg/mL); in [11], 3.12 µM (≈ 7.24 µg/mL); in test [12], 3.12 µM (≈ 7.24 µg/mL); in test [13] it was 12.5 µM (≈ 29 µg/mL).
For `CC[C@H](C)[C@H](N)C(=O)N[C@@H](CC(C)C)C(=O)N1CCC[C@H]1C(=O)N[C@@H](Cc1c[nH]c2ccccc12)C(=O)N[C@@H](CCCCN)C(=O)N[C@@H](Cc1c[nH]c2ccccc12)C(=O)N1CCC[C@H]1C(=O)N[C@@H](Cc1c[nH]c2ccccc12)C(=O)N[C@@H](CC(C)C)C(=O)N1CCC[C@H]1C(=O)N[C@@H](Cc1c[nH]c2ccccc12)C(=O)N[C@@H](CCCN=C(N)N)C(=O)N[C@@H](CCCN=C(N)N)C(N)=O` [ILPWKWPWLPWRR], the MIC in test [14] turned out to be 0.851 µM (≈ 1.56 µg/mL); in test [2], 6.81 µM (≈ 12.5 µg/mL); in test [4], 0.851 µM (≈ 1.56 µg/mL).
With `CC(C)C[C@H](NC(=O)[C@H](CO)NC(=O)[C@@H]1CCCN1C(=O)[C@H](CO)NC(=O)[C@H](CC(C)C)NC(=O)[C@@H](N)CCCCN)C(=O)NCC(=O)N1CCC[C@H]1C(=O)N[C@H](C(=O)N[C@@H](CO)C(=O)N[C@@H](CCCCN)C(=O)NCC(=O)N[C@@H](CCCCN)C(=O)N[C@@H](CC(C)C)C(=O)N[C@@H](CC(C)C)C(=O)N[C@@H](C)C(=O)NCC(=O)N[C@@H](CCC(N)=O)C(=O)N[C@@H](CCCN=C(N)N)C(N)=O)C(C)C` [KLSPSLGPVSKGKLLAGQR], the MIC was 33 µM (≈ 63.9 µg/mL) in [15] and no less than 66 µM in test [16].
As for `CC(C)[C@@H]1NC(=O)[C@@H]2CSSC[C@@H]3NC(=O)[C@H](CCCCN)NC(=O)CNC(=O)[C@H](CCC(=O)O)NC(=O)[C@H](CC(=O)O)NC(=O)[C@H]([C@@H](C)O)NC(=O)[C@@H]4CCCN4C(=O)[C@@H](NC(=O)CNC(=O)[C@H](Cc4ccc(O)cc4)NC(=O)[C@@H]4CCCN4C(=O)[C@H](CC(N)=O)NC(=O)[C@H](CCC(=O)O)NC(=O)[C@@H](N)Cc4ccc(O)cc4)CSSC[C@H](NC(=O)[C@H](Cc4ccc(O)cc4)NC(=O)CNC(=O)CNC(=O)[C@H](CCC(=O)O)NC(=O)[C@H](Cc4ccccc4)NC(=O)[C@H](CCC(=O)O)NC(=O)[C@H](CO)NC(=O)[C@H](CC(=O)O)NC(=O)[C@H](CC(N)=O)NC(=O)[C@H](CSSC[C@@H](C(=O)N[C@@H](Cc4ccc(O)cc4)C(=O)N[C@@H](CCCN=C(N)N)C(=O)N[C@H](C(=O)O)[C@@H](C)O)NC1=O)NC(=O)[C@H](CCCN=C(N)N)NC(=O)[C@H](CC(=O)O)NC(=O)[C@H](Cc1ccccc1)NC3=O)C(=O)NCC(=O)NCC(=O)N[C@@H](CO)C(=O)N[C@@H](Cc1ccc(O)cc1)C(=O)N[C@@H](CCCN=C(N)N)C(=O)N[C@@H](C)C(=O)N[C@@H]([C@@H](C)O)C(=O)N2` [YENPYGCPTDEGKCFDRCNDSEFEGGYCGGSYRATCVCYRT], the figures for the minimal inhibitory concentration (MIC) against Escherichia coli OP50 and with Staphylococcus aureus were 30 µM (≈ 138 µg/mL) and 7.5 µM (≈ 34.6 µg/mL), respectively.
Regarding `CC(C)C[C@H](NC(=O)[C@H](CCCN=C(N)N)NC(=O)[C@@H]1CCCN1C(=O)[C@@H]1CCCN1C(=O)[C@H](CCCN=C(N)N)NC(=O)[C@@H]1CCCN1)C(=O)N1CCC[C@H]1C(=O)N[C@@H](CCCN=C(N)N)C(=O)N1CCC[C@H]1C(=O)N[C@@H](CCCN=C(N)N)C(=O)N1CCC[C@H]1C(=O)N[C@@H](CCCN=C(N)N)C(=O)N1CCC[C@H]1C(=O)N[C@@H](CC(C)C)C(=O)N1CCC[C@H]1C(=O)N[C@@H](Cc1ccccc1)C(=O)N1CCC[C@H]1C(=O)N[C@@H](CCCN=C(N)N)C(=O)N1CCC[C@H]1C(=O)O` [PRPPRLPRPRPRPLPFPRP], the minimal inhibitory concentration (MIC) in [15] is 64 µM (≈ 147 µg/mL); in the test on Escherichia coli ML-35, no less than 64 µM; in test [17], 128 µM (≈ 294 µg/mL); in test [18], no less than 128 µM; in [19], greater than 128 µM.
As for `CC[C@H](C)[C@H](N)C(=O)N[C@@H](C)C(=O)N[C@@H](CO)C(=O)N[C@@H](CCCCN)C(=O)N[C@H](C(=O)N[C@@H](C)C(=O)N[C@@H](CC(N)=O)C(=O)N[C@H](C(=O)N[C@H](C(=O)N[C@@H](CCC(N)=O)C(=O)N[C@@H](CCCCN)C(=O)N[C@@H](CC(C)C)C(=O)N[C@@H](CCCCN)C(=O)N[C@@H](CCCN=C(N)N)C(=O)N[C@@H](CCCCN)C(=O)N[C@@H](C)C(=O)N[C@@H](CCCCN)C(=O)N[C@@H](CC(N)=O)C(=O)N[C@@H](C)C(=O)N[C@H](C(=O)N[C@@H](C)C(=O)O)C(C)C)C(C)C)[C@@H](C)O)C(C)C` [IASKVANTVQKLKRKAKNAVA], the MIC was 8.84 µM (≈ 19.8 µg/mL) with Acinetobacter baumannii; 6.25 µM (≈ 14 µg/mL) in test [20]; no less than 50 µM in test [21]; 12.5 µM (≈ 28 µg/mL) in the test with Escherichia coli 170; no less than 50 µM in the test on Escherichia coli 4530; greater than 50 µM in test [15]. For the same molecule, the values for the MIC in test [22], in [23] and in [24] were no less than 50 µM, 25 µM (≈ 56 µg/mL) and no less than 50 µM, respectively.
